Assay results taken from patent US20240208901A1, “Deuterated 3,3'-Diselenodipropionic Acid (DSePA) and Its Use as an Anticancer or Radioprotective Agent” (Secretary, Department of Atomic Energy, priority 2022, published 2024).

Tests used:
Type in all cases: cell-based, human
WI-38 cells [1] = test: Clonogenic assay in WI-38 cells; details: seven days treatment, read-out: IC50 to inhibit growth (survival fraction)
Experimental: (§1) Further, clonogenic assay is considered as the gold standard method for evaluating the anticancer activity of any compound and is also a good indicator of the in vivo efficacy of any anticancer compound. Therefore, the therapeutic index of DSePA and D-DSePA in A549/WI-38 cells was also validated by employing the clonogenic assay. For this, A549/WI-38 cells were treated with the varying concentrations (0.1-2 μM)/(1-500 μM) of DSePA/D-DSePA for seven days and the survival fraction was calculated by counting the number of surviving clones (FIG. 11A). The plot of survival fraction verses the concentration of DScPA/D-DSCPA was used to estimate the IC50 of above compounds to inhibit the growth of A549/WI-38 cells. […] This clearly confirmed that deuteration of DScPA reduced its toxicity in normal cells without compromising its efficacy in cancer cells. […]
(§2) Clonogenic assay—Clonogenic assay was performed according to the method reported previously. […] After 7 days, colonies were fixed with absolute methanol for 5 min, stained with 0.5% crystal violet for 5 min, washed with distilled water to remove excess stain and counted manually under a stereo microscope. […] The plating efficiency and the survival fraction under irradiated and drug treated conditions were calculated using following formulae: […]
(§3) The plating efficiency of A549 and WI38 cells was calculated by seeding ˜300 and ˜500 cells respectively. […]

A549 cells [2] = test: Clonogenic assay in A549 cells; details: seven days treatment, read-out: IC50 to inhibit growth (survival fraction)
Experimental: as §1, §2, §3

WI-26 VA4 cells = test: MTT assay, toxicity in non-cancerous lung fibroblast WI-26 VA4 cells; details: 48 h post treatment, read-out: IC50 for inhibiting the cell proliferation
Excerpt: (§4) Therefore, D-DSePA was compared with un-deuterated DSePA for its anticancer activity in A549, H1975 and H3122 cell lines which are representative of NSCLC. […] The plot of percent (%) cytotoxicity (100-% viability) versus the concentration of DSePA/D-DSePA was used to estimate the half maximum concentration (IC50) of above compounds to inhibit the proliferation of cells. […] Similarly, the toxicity of DSePA/D-DSePA was studied in non-cancerous lung fibroblast cells, WI-38 and WI-26 VA4 in the concentration range of 0.1 to 1000 μM at 48 h post treatment by MTT assay (FIG. 9D and 9E). […] Employing these values, the therapeutic index (IC50 in normal lung cell/IC50 in lung cancer cell) of DSePA and D-DSePA in different pairs of normal versus cancerous cells (viz., A549/WI-38, A549/WI-26 VA4, H1975/WI-38, H1975/WI-26 VA4, H3122/WI-38 and H3122/WI-26 VA4) was calculated (Table-3). […]
(§5) MTT Assay—To evaluate the anti-proliferative effect of D-DScPA and DScPA, Cells (˜5×10^3) suspended in 100 μl of complete culture medium were seeded in each well of 96 well plates. […] The percentage (%) cytotoxicity was calculated from the decrease in absorbance at 570 nm of treated groups as compared to that of control group. […] The therapeutic index was calculated by normalizing the IC50 concentration of D-DSePA/DSePA in non-cancerous cells to that in cancerous cells.

WI-38 cells [3] = test: MTT assay, toxicity in non-cancerous lung fibroblast WI-38 cells; details: WI38 cells, 48 h post treatment, read-out: IC50 for inhibiting the cell proliferation
Excerpt: as §4, §5

H3122 cells = test: MTT assay, anti-proliferative effect in H3122 cells; details: 48 h treatment, read-out: IC50 to inhibit cell proliferation
Experimental: (§6) Therefore, D-DSePA was compared with un-deuterated DSePA for its anticancer activity in A549, H1975 and H3122 cell lines which are representative of NSCLC. For this, above cells were treated with the varying concentrations (0.1-100 μM) of DSePA/D-DSePA for 48 h and the cell viability was determined by MTT assay (FIG. 9A-C). The plot of percent (%) cytotoxicity (100-% viability) versus the concentration of DSePA/D-DSePA was used to estimate the half maximum concentration (IC50) of above compounds to inhibit the proliferation of cells. […] Employing these values, the therapeutic index (IC50 in normal lung cell/IC50 in lung cancer cell) of DSePA and D-DSePA in different pairs of normal versus cancerous cells (viz., A549/WI-38, A549/WI-26 VA4, H1975/WI-38, H1975/WI-26 VA4, H3122/WI-38 and H3122/WI-26 VA4) was calculated (Table-3). […]
as §5

A549 cells [4] = test: MTT assay, anti-proliferative effect in A549 cells; details: 48 h treatment, read-out: IC50 to inhibit cell proliferation
Experimental: as §6, §5

H1975 cells = test: MTT assay, anti-proliferative effect in H1975 cells; details: 48 h treatment, read-out: IC50 to inhibit cell proliferation
Experimental: as §6, §5

Compound `O=C(O)CC[Se][Se]CCC(=O)O` [D-DSePA, 3,3′-diselenodipropionic acid-D8] has an IC50 (WI-38 cells [1]) of 35.5 ± 0.02 µM, an IC50 (A549 cells [2]) of 0.9 ± 0.03 µM and an IC50 (WI-26 VA4 cells) of 550 ± 10.2 µM. For the same compound, the IC50 (WI-38 cells [3]) was 1000 ± 6.3 µM, the IC50 (H3122 cells) was 46.5 ± 2.9 µM and the IC50 (A549 cells [4]) was 15.2 ± 0.9 µM. It also gave an IC50 (H1975 cells) of 4.6 ± 0.7 µM.
